# Experimental data as given in ChEMBL document CHEMBL1130409, “Hydrazide-containing inhibitors of HIV-1 integrase” (J Med Chem, 1997).
# Key:
# [1] = target: T1, Human immunodeficiency virus type 1 integrase (Human immunodeficiency virus 1, UniProt Q7ZJM1); assay: Inhibition of HIV-1 integrase enzyme by 3'-processing method
# [2] = target: T1, Human immunodeficiency virus type 1 integrase; assay: Inhibition of HIV-1 integrase enzyme
# [3] = target: T1, Human immunodeficiency virus type 1 integrase; assay: Inhibition of HIV-1 integrase enzyme by 3'-processing method (experiment 1)
# [4] = target: T1, Human immunodeficiency virus type 1 integrase; assay: Inhibition of HIV-1 integrase enzyme by 3'-processing method (experiment 2)
# [5] = target: T1, Human immunodeficiency virus type 1 integrase; assay: Inhibition of HIV-1 integrase enzyme by integration method (experiment 1)
# [6] = target: T1, Human immunodeficiency virus type 1 integrase; assay: Inhibition of HIV-1 integrase enzyme by integration method (experiment 2)
# [7] = target: T1, Human immunodeficiency virus type 1 integrase; assay: Inhibition of HIV-1 integrase enzyme by integration method
# T1 sequence (Q7ZJM1 whole entry): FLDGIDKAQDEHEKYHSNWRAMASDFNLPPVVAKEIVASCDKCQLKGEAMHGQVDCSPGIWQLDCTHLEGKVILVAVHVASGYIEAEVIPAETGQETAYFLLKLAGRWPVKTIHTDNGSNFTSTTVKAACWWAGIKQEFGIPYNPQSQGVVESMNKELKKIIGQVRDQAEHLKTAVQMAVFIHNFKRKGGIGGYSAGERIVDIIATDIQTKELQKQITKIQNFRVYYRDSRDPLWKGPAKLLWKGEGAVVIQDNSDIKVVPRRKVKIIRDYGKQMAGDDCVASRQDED
Structure (SMILES),IC50 [1],IC50 [2],also measured
NNC(=O)c1ccccc1N,> 100 µM,> 100 µM,
CC(=O)NNC(=O)c1ccccc1O,> 100 µM,> 100 µM,
NC(=O)c1ccccc1O [SALICYLAMIDE],> 100 µM,> 100 µM,
O=C(NNC(=O)c1ccccc1O)c1ccccc1O,2.07 µM,0.73 µM,
O=C(NNC(=O)c1ccccc1)c1ccccc1,> 100 µM,> 100 µM,
Nc1ccccc1C(=O)NNC(=O)c1ccccc1O,> 100 µM,> 100 µM,
NN(CC(O)COc1ccccc1)C(=O)c1ccccc1O (stereo not given),> 200 µM,> 200 µM,
O=C(NNC(=O)c1ccccc1O)c1ccccc1,> 100 µM,> 100 µM,
NNC(=O)c1ccccc1O,,,IC50 [3]: 46 µM; IC50 [4]: 114 µM; IC50 [5]: 33 µM; IC50 [6]: 43 µM
O=C(NNCc1ccccc1O)c1ccccc1O,6.7 µM,5.2 µM,
O=C(NNC(=O)c1ccccc1S)c1ccccc1O,9.1 µM,5.8 µM,
O=C(NNC(=O)c1cc2ccccc2cc1O)c1ccccc1O,2.3 µM,1.1 µM,
Nc1ccccc1C(=O)NNC(=O)c1ccccc1N,> 100 µM,> 100 µM,
NNC(=O)c1ccccc1S,,,IC50 [3]: 70 µM; IC50 [4]: 79.6 µM; IC50 [5]: 57.5 µM; IC50 [6]: 50 µM
O=C(N/N=C/c1ccccc1O)c1ccccc1O,> 100 µM,> 100 µM,
O=C(NNCC(O)COc1ccccc1)c1ccccc1O (stereo not given),> 200 µM,,IC50 [7]: > 200 µM
O=C(NNC(=O)c1ccccn1)c1ccccn1,> 100 µM,> 100 µM,
O=C(NCCCNC(=O)c1ccccc1O)c1ccccc1O,> 200 µM,> 200 µM,
